According to patent US5792457A, “Antibody recognizing endothelial cell ligand for leukocyte CR3” (priority 1995, dated 1998):
“Also recorded” adds a separate entry of the source.

Tested on: leukocyte migration into the CSF, pneumococcal meningitis
Experiment: Rabbit model for meningitis: leukocyte migration into CSF
Assay type: in vivo, New Zealand white rabbits
Conditions: for mean leukocyte concentration/μl CSF / mean leukocyte density, cells/μl CSF: 7 hours after challenge; for leukocyte migration into the CSF (in words): 0.1 μM (10^-1 μM) i.v.; for leukocyte migration into CSF (in words): 10^-3 μM; for reduction of CSF leukocytosis: intravenous injection; for mean leukocyte density, cells/μl CSF: 1 ml of 1 μM peptide i.v.
Excerpt: FIG. 20A and B, is a graphical representation of the anti-inflammatory activity of FHA, and FHA- and factor X-derived peptides in experimental bacterial meningitis. FIG. 20 A: FHA .largecircle.; Control .quadrature.. FIG. 20B: FHA peptide Ia .largecircle.; FHA peptide II .box-solid.; Factor X peptide II .tangle-solidup.; scrambled FHA peptide II .circle-solid..
FIG. 21 is a graphical representation of the effect of concentration of peptide on inhibition of leukocyte migration into the CSF. FHA peptide Ia .largecircle., FHA peptide II .box-solid.; Factor X peptide II .tangle-solidup.(n≥4 per group). Two animals received intravenous injections of 10^-1 μM, 2×10^-2 μM or 2×10^-3 μM FHA (.circle-solid.). Values are means±standarddeviations of leukocyte densities at 7 hours after bacterial challenge. The horizontal lines indicate the mean and standard deviation of CSF leukocyte density in 10 control animals which received phosphate buffered saline.
FIG. 22 is a scattergram representation of the effect of variation of the FHA peptide II structure on efficacy of inhibition,of meningeal inflammation. Values are leukocyte densities at 7 hours for individual rabbits. The horizontal lines indicate the mean and standard deviation of CSF leukocyte density in 10 control animals which received phosphate buffered saline.
FIG. 23 is a scattergram representation of the ability of acetyl/amide FHA peptide II to inhibit accumulation of leukocytes in the CSF. Two groups of 10 animals were challenged with pneumococci. One hour later, the animals received an intravenous injection of 10 nmoles of the acetyl/amide peptide (8.2 μg) or phosphate buffered saline. Leukocyte density in CSF was determined 6 hours after pneumococcal challenge.
FIG. 28 is a graphical representation of the effect of FHA peptides on pneumococci induced leukocyte migration into the CSF during pneumococcal meningitis. Data represent mean±standard deviation of leukocyte concentration/μl CSF of at least 4 animals per group. Time is hours after pneumococcal challenge. FHA peptide Ca (.quadrature.); FHA peptide Cb (.largecircle.); FHA peptide Cd (.tangle-solidup.); Control (.diamond-solid.);
FIG. 29 is a graphical representation of a comparison of anti-inflammatory activity of FHA and FHA peptides in experimental meningitis. FHA peptide Ca (.quadrature.); FHA peptide Cb (.largecircle.), ≥ four animals/group; FHA (.tangle-solidup.), two animals/group. Values are means ±standard deviations of leukocyte concentrations/μl CSF at 7 hours after bacterial challenge. The horizontal lines indicate the mean±standard deviation of leukocyte concentrations in 10 control animals which received phosphate buffered saline.
The rabbit model was performed according to an established protocol. Specific pathogen free, New Zealand white rabbits (2 kg; Hare Marland, Nutley, N.J.) were anesthetized with valium (2.5 mg/kg, subcutaneously, Hoffman-LaRoche, Nutley, N.J.), ketamine (35 mg/kg, intra-muscularly, Aveco, Fort Dodge, Iowa) and xylazine (5 mg/kg, intramuscularly, Miles Laboratories, Shawnee, Kans.) and a helmet of dental acrylic was affixed to the calvarium. Twenty four hours later, the rabbits were anesthetized with ethyl carbamate (1.75 g/kg; Aldrich Chemical Co., Milwaukee, Wis.) and pentobarbital (15 mg/kg; Abbott Laboratories, Abbott Park, Ill.) and placed in a stereotaxic frame. A spinal needle was introduced into the cisterna magna and 300 μl of CSF was withdrawn. The animals were challenged intracisternally with 10^8 heat killed, unencapsulated pneumococcus strain R6 introduced in 200 μl of saline (time 0). One hour later, animals were treated with peptides dissolved in 1 ml of saline by intravenous injection into the right marginal ear vein. The concentration of FHA was 0.1 μM and that of the FHA Ia, Factor X II, and scrambled FHA II peptides was 10 μM. For the acetyl-FHA II, acetyl/amide-FHA II, dimer of FHA II and trimer of FHA II peptides, the concentration was 10^-3 μM. […]

Substance: Ac-ETKEVDG-NH2 [Acetyl/Amide-FHA II]
- leukocyte migration into the CSF (10 nmoles i.v., 6 hours post-pneumococcal challenge, n=10): 3011±684 cells/μl

Substance: DEETVK [scrambled FHA II, reference compound]
- CSF leukocytosis (in words) (peptides 10 μM): ineffective
- mean leukocyte concentration/μl CSF (peptides 10 μM i.v.): 6431±1380 /μl CSF

Substance: ETKEVDG [FHA II]
- leukocyte migration into the CSF (in words) (listed as FHA peptide II): statistically significantly different from control at p<0.02; also recorded: more potent anti-inflammatory activity than the corresponding Factor X peptide II
- leukocyte migration into CSF (in words): ineffective
- reduction of CSF leukocytosis: > 60%
- mean leukocyte concentration/μl CSF (peptides 10 μM i.v.): 2645 ±1412 /μl CSF

Substance: GTLLLRNDALTENGTVTISA [FHA Cd]
- leukocyte recruitment into the CSF (in words) (1 μM peptide): no effect on the leukocyte recruitment into the CSF

Substance: GYDTKQEDG [Factor X II]
- reduction of CSF leukocytosis: > 60%
- mean leukocyte concentration/μl CSF (peptides 10 μM i.v.): 1622±521 /μl CSF

Substance: LGYQAK (UniProt P12255 1979-1984, looked up, fragment) [FHA Ia]
- reduction of CSF leukocytosis: > 60%
- mean leukocyte concentration/μl CSF (peptides 10 μM i.v.): 1640±1210 /μl CSF

Substance: RADPHQGVLAQGDIIMDAKG [FHA Cb]
- leukocyte migration into the CSF (in words): ineffective at this dose
- mean leukocyte density, cells/μl CSF: 2788±1022 cells/μl CSF

Substance: RGDPHQGVLAQGDIIMDAKG [FHA Ca]
- leukocyte migration into the CSF (in words): still significantly reduced leukocyte migration into the CSF
- mean leukocyte density, cells/μl CSF: 2137±1498 cells/μl CSF

Substance: native FHA: Filamentous hemagglutinin, 220kD surface associated protein of Bordetella pertussis (List Biologicals)
- leukocyte migration into the CSF (in words) (listed as FHA): statistically significantly different from control at p<0.05; also recorded: more potent anti-inflammatory activity than the corresponding Factor X peptide II
- leukocyte migration into CSF (in words): ineffective
- mean leukocyte concentration/μl CSF (FHA 25 μg, 0.1 μM i.v.): 2096±450 /μl CSF
- reduction of CSF leukocytosis: > 60%
